From patent US20160102058A1, “FLUORO-PERHEXILINE COMPOUNDS AND THEIR THERAPEUTIC USE” (THE UNIVERSITY COURT OF THE UNIVERSITY OF ABERDEEN, priority 2013, published 2016)

Tests used:
[1] = Rat liver microsomal (RLM) stability assay; assay type: in vitro ADME; settings: both sexes, pH 7.4, rat liver microsomes, 3 μM test compound; for microsomal CLint at 3 μM: read-out: CLint (μL/min/mg protein) RLM; for half-life at 3 μM: read-out: T½ (min) RLM
Experimental: The metabolic stability of fluoroperhexiline derivatives was measured by determination of the rate of compound disappearance when incubated in the presence of both human and rat liver microsomes. Liver microsomes are prepared from the endoplasmic reticulum of hepatocytes and are the primary source of the most important enzymes (cytochrome P450) involved in drug metabolism. Study of drug stability in the presence of liver microsomes is accepted as a valuable model permitting rapid prediction of in vivo drug stability.
Human and rat liver microsomes were obtained from a commercial source. Test compounds (3 μM) were incubated with pooled liver microsomes (male and female). Samples were incubated for a 45 minute period and removed at 5 time points and test compounds were analysed by LC-MS/MS.
Microsomes (final protein concentration 0.5 mg/mL), 0.1 M phosphate buffer pH 7.4, and test compound (final concentration 3 μM; diluted from 10 mM stock solution to give a final DMSO concentration of 0.25%) were incubated at 37° C. prior to the addition of NADPH (final concentration 1 mM) to initiate the reaction. The final incubation volume was 25 μL. A control incubation was included for each compound tested, where 0.1 M phosphate buffer pH 7.4 was added instead of NADPH. The control compounds testosterone and 7-hydroxycoumarin were included in each experiment and all incubations were performed singularly for each compound.
Each compound was incubated for 0, 5, 15, 30, and 45 minutes. The control (minus NADPH) was incubated for 45 minutes only. The reactions were stopped by the addition of 50 μL methanol containing internal standard at the appropriate time points. The incubation plates were centrifuged at 2500 rpm for 20 minutes at 4° C. to precipitate the protein.
Following protein precipitation, the sample supernatants were combined in cassettes of up to 4 compounds and analysed using standard LC-MS/MS conditions.
From a plot of the natural logarithm of the peak area ratio (i.e., the ratio of compound peak area:internal standard peak area) against time, the gradient of the line was determined. Subsequently, half-life and intrinsic clearance were calculated using the equations below:
Eliminated Rate Constant (k)=(−Gradient).
Half-Life (t1/2) (min)=0.063/k.
Intrinsic Clearance (CLint) […]=(V×0.693)/t1/2. • wherein V=Incubation Volume (μL/mg microsomal protein).

cardiac CPT-1 = target: T1, cardiac CPT-1 (Rattus norvegicus, UniProt Q63704); test: Carnitine palmitoyl transferase (M-CPT-1) inhibition assay, rat heart mitochondria; assay type: biochemical
T1 construct: 50 μL of mitochondrial suspension, suitably diluted in Assay Buffer; from tissue; host or cells: rat heart mitochondria (Sprague-Dawley)
T1 sequence (Q63704 1-772): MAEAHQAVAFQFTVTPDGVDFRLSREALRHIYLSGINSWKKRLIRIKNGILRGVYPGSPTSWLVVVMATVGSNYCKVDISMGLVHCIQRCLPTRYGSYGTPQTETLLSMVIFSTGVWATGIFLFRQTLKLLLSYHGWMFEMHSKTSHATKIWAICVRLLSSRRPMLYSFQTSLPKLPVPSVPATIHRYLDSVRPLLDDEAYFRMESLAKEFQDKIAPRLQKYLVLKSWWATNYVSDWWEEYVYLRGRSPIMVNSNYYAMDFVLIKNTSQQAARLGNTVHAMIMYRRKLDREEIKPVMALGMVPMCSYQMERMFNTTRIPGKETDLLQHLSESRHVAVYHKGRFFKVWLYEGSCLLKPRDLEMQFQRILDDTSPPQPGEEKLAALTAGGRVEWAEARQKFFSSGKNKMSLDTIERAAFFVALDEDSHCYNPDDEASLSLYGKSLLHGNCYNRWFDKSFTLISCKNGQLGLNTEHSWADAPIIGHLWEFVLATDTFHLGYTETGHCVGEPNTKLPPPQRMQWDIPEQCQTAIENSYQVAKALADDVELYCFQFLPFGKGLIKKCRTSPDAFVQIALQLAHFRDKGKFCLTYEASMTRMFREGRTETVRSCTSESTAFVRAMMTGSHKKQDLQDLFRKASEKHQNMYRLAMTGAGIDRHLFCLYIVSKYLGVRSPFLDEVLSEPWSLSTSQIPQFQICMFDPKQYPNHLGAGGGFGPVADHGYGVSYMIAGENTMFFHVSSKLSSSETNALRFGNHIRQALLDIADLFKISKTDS
Experimental: Male Sprague-Dawley rats (8-10 weeks of age) were purchased from Charles River and maintained for 10 days under standard housing and feeding conditions. All isolation procedures were performed on ice using pre-cooled solutions and instruments. Rats (n=4 per mitochondrial isolation batch) were sacrificed by CO2 asphyxiation, and hearts were removed and rinsed in 3 changes of ice-cold phosphate buffered saline (PBS) to remove blood. Hearts were finely minced with scissors, and homogenised in 5 volumes/wt of a buffer containing 300 mM sucrose, 5 mM MOPS, 1 mM EGTA, 5 mM K2HPO4, 0.1% BSA, pH 7.4, using a teflon Potter homogenizer. The homogenate was centrifuged at 1500×g for 10 min, the supernatant was collected and centrifuged at 9800×g for 5 min, the mitochondrial pellet was washed and centrifuged twice in the same buffer, and then re-suspended in Assay Buffer (150 mM sucrose, 60 mM KCl, 25 mM Tris/HCl, 1 mM EDTA, 0.1 mM 4,4′-dithiopyridine, 1.3 mg/mL lipid-depleted BSA, pH 6.8). Mitochondrial suspensions were kept on ice and used fresh for each set of experiments. A spectrophotometric assay for M-CPT-1 was used, which measured the decrease in palmitoyl CoA concentration as it was utilised by the enzyme to produce palmitoylcarnitine, according to the following reaction: palmitoyl CoA+L-carnitine→palmitoylcarnitine+CoA The disappearance of palmitoyl CoA was monitored as a loss of UV absorbance at 324 nm. Enzyme reactions (1.0 mL final volume, in a spectrophotometer cuvette) contained: • 890 μL of Assay Buffer (see above). • 50 μL of mitochondrial suspension, suitably diluted in Assay Buffer. • 20 μL of 50-fold concentrated inhibitor in suitable vehicle, or vehicle alone. • 20 μL of 2 mM palmitoyl CoA (final concentration 40 μM). • 20 μL of 20 mM L-carnitine (final concentration 400 μM). […] Tubes were incubated at 37° C., and UV absorbance was recorded for 5 min. […] The protein concentration of the mitochondrial suspension was determined using the Bradford assay reagent. […]

SMILES: FC1(F)CCC(C(CC2CCCCN2)C2CCCCC2)CC1 (mixture of isomers) [FPER-001, 2-(2-Cyclohexyl-2-(4,4-difluorocyclohexyl)ethyl)piperidine]
- microsomal CLint at 3 μM [1]: 19 µL/min/mg
- half-life at 3 μM [1]: 72 min
- IC50 (cardiac CPT-1): 35 µM

SMILES: FC1CCC(C(CC2CCCCN2)C2CCCCC2)CC1 (mixture of isomers) [FPER-003, 2-(2-Cyclohexyl-2-(4-fluorocyclohexyl)ethyl)piperidine]
- microsomal CLint at 3 μM [1]: 129 µL/min/mg
- half-life at 3 μM [1]: 11 min
- IC50 (cardiac CPT-1): 85 µM

SMILES: C1CCC(C(CC2CCCCN2)C2CCCCC2)CC1 (stereo not drawn) [Perhexiline, 2-(2,2-dicyclohexylethyl)piperidine]
- microsomal CLint at 3 μM [1]: 65 µL/min/mg
- half-life at 3 μM [1]: 21 min
- IC50 (cardiac CPT-1): 18 µM
